From US10413557B2, “Prodrugs of 17.BETA.-HSD1-inhibitors” (FORENDO PHARMA LTD, priority 2014, dated 2019)
≈ marks a conversion by molar mass, not a printed value.

Assays:
[1] = Aqueous solubility test; type: physicochemical; conditions: for solubility: buffer solution, aqueous buffer, thermodynamic from solid, rt, buffer pH 7.4, stirred 48 hours or less, HPLC
Method: The pH of the mixtures was held constant during the study. Excess amounts or a known amount of each component are added to 1 or 0.5 ml of buffer solution and the mixtures were stirred at rt for 48 hours or less, filtered (0.45 μm Millipore) and analyzed by HPLC.

[2] = biological target: T1, recombinant human 17β-HSD1 (Homo sapiens, UniProt P14061); assay: Inhibition of recombinant human 17β-HSD1 (conversion of 3H-estrone to estradiol, HPLC); type: biochemical; conditions: inhibitor 1 μM; 30 nM estrone, 1 mM NADPH, 30 min RT; read-out: 17β-HDS1 Inhibition % at 1 μM
T1 construct: made in house; host or cells: Sd9 (Sf9) insect cells, baculovirus (Bac to Bac Expression System)
T1 sequence (P14061 1-328): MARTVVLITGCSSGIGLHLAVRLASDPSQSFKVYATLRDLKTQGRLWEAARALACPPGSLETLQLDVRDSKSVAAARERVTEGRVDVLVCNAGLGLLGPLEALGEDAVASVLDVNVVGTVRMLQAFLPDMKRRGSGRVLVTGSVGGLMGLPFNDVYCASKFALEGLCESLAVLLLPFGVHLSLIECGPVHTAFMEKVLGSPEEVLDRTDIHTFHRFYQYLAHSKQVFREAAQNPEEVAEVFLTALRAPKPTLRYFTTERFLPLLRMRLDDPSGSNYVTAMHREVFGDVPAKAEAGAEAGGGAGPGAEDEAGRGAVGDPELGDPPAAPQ
Method: 17β-HSD1 production and isolation: Recombinant baculovirus was generated by the “Bac to Bac Expression System” (Invitrogen). Recombinant bacmid was transfected to Sd9 insect cells using “Cellfectin Reagent” (Invitrogen). 60 h later cells were harvested; the microsomal fraction was isolated as described by Puranen, T. J., Poutanen, M. H., Peltoketo, H. E., Vihko, P. T. and Vihko, R. K. (1994) Site-directed mutagenesis of the putative active site of human 17 β-hydroxysteroid dehydrogenase type 1. Biochem. J. 304: 289-293. Aliquots were stored frozen until determination of enzymatic activity.
Assay—Inhibition of recombinant human 17β-HSD1: Protein homogenate (0.1 μg/ml) was incubated in 20 mM KH2PO4 pH 7.4 with 30 nM estrone (including 800 000 cpm/ml of ^3H-estrone) and 1 mM NADPH for 30 min at RT, in the presence of the potential inhibitor at concentrations 1 μM or 0.1 μM. Inhibitor stock solutions were prepared in DMSO. Final concentration of DMSO was adjusted to 1% in all samples. The enzyme reaction was stopped by addition of 10% trichloroacetic acid (final concentration). Samples were centrifuged in a microtiter plate at 4000 rpm for 10 min. Supernatants were applied to reverse phase HPLC on a Waters Symmetry C18 column, equipped with a Waters Sentry Guard column. Isocratic HPLC runs were performed at RT at a flow rate of 1 ml/min in acetonitrile:water 48:52 as running solvent. Radioactivity was monitored in the eluate by a Packard Flow Scintillation Analyzer. Total radioactivity for estrone and estradiol were determined in each sample and percent conversion of estrone to estradiol was calculated according to the following formula:
(§1) Percent inhibition was calculated flowingly: % inhibition=100−% conversion

[3] = biological target: T2, recombinant human 17β-HSD2 (Homo sapiens, UniProt P37059); assay: Inhibition of recombinant human 17β-HSD2 (conversion of 3H-estradiol to estrone, HPLC); type: biochemical; conditions: inhibitor 1 μM; 50 nM estradiol, 1 mM NADH, 30 min RT
T2 construct: made in house; host or cells: Sd9 (Sf9) insect cells, baculovirus (Bac to Bac Expression System)
T2 sequence (P37059 1-387): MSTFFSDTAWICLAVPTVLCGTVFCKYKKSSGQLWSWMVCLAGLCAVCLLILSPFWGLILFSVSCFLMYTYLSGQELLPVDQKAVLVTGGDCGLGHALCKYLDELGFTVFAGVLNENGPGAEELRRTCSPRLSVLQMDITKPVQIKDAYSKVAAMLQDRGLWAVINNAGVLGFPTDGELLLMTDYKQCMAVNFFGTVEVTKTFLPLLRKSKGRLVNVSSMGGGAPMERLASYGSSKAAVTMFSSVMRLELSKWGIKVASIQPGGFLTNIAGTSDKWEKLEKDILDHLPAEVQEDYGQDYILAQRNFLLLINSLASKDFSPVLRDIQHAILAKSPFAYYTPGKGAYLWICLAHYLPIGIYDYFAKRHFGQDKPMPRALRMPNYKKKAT
Method: 17β-HSD2 production and isolation: Similarly to 17β-HSD1 the Recombinant baculovirus was generated by the “Bac to Bac Expression System” (Invitrogen). Recombinant bacmid was transfected to Sd9 insect cells using “Cellfectin Reagent” (Invitrogen). 60 h later cells were harvested and supernatant were fractionated by the following protocol: • cells were dissolved into 40 ml of A-buffer (40 mM TRIS, pH8.0, 20% glycerol, 20 μM NAD, 0.4 mM PMSF, 150 mM NaCl, 0.5% dodecyl-β-maltoside+protease inhibitor cocktail) • cells were sonicated • lysate was incubated on ice for 15 min • lysate was centrifuged 5000 rpm 15 min, +4° C. • centrifugation of the supernatant 180 000 g 30 min, +4° C. • pellet was dissolved into 8 ml of A-buffer • not resuspended material was removed by centrifugation 5000 rpm 15 min, +4° C. • the clear supernatant was divided into 100 μl aliquots and were stored frozen until determination of enzymatic activity.
The amount of 17β-HSD2 was analysed by immunoblotting and total protein concentration of each extract batch was determined.
Assay—Inhibition of recombinant human 17β-HSD2: Protein homogenate (4 μg/ml) was incubated in 20 mM KH2PO4 pH 8.5 with 50 nM estradiol (including 800 000 cpm/ml of ^3H-estradiol) and 1 mM […] for 30 min at RT, in the presence of the potential inhibitor at concentrations 1 μM or 0.1 μM. Inhibitor stock solutions were prepared in DMSO. Final concentration of DMSO was adjusted to 1% in all samples. The enzyme reaction was stopped by addition of 10% trichloroacetic acid (final concentration). Samples were centrifuged in a microtiter plate at 4000 rpm for 10 min. Supernatants were applied to reverse phase HPLC on a Waters Symmetry C18 column, equipped with a Waters Sentry Guard column. Isocratic HPLC runs were performed at RT at a flow rate ofl ml/min in acetonitrile:water 48:52 as running solvent. Radioactivity was monitored in the eluate by a Packard Flow Scintillation Analyzer. Total radioactivity for estrone and estradiol were determined in each sample and percent conversion of estradiol to estrone was calculated according to the following formula:
as §1

[4] = Metabolic stability assay; type: in vitro ADME; conditions: human liver homogenate or microsomes
Method: The in vitro metabolic stability of the parent compounds was determined for exemplified compounds using human liver microsome and homogenate incubations. The incubation time points used with or without appropriate cofactors were 0 min and 60 min. Samples were collected at both time points and substrates were detected using LC/PDA/TOF-MS. In vitro metabolic stability (% remaining after 60 min in human liver homogenate or microsomes) of the compounds were calculated and the results are summarized in Table 4.

[5] = Determination of bioavailability: oral pharmacokinetics in Cynomolgus monkeys; type: in vivo; conditions: dose corresponding to 10 mg/kg of parent drug, 0.5% Carboxymethyl cellulose in water
Method: This study was performed in order to determine bioavailability of the present compounds in vivo. All animal experiments are performed in accordance with standards of ethical conduct and appropriate institutional animal care and use policies.
The pharmacokinetic studies of the compounds of the invention were assessed in Cynomolgus monkeys. The study compounds were administrated orally at a dose level corresponding to 10 mg/kg of parent drug. The common aqueous formulation, 0.5% Carboxymethyl cellulose in water, was used as a vehicle. The blood samples were obtained by direct venipuncture at pre-dose, and ten sequential time points after oral administration.
The quantitative bioanalysis of plasma samples were performed in accordance with the guidance Bioanalytical Method Validation (FDA, 2001) and the Guideline on Bioanalytical Method Validation (European Medicines Agency, 2011). Analytical method was optimized for suitable chromatographic (peak shape, retention) and mass spectrometric (ionization efficiency) properties.
A non-compartmental pharmacokinetic analysis was carried out with individual plasma concentration-time curves using WinNonlin® Professional Version 6.3 (Pharsight Corporation): […]
The area under the concentration-time curve from 0 to the last measurable concentration (AUCt) was calculated using the linear-log trapezoidal rule.

Compound | solubility [1] [µg/mL] | aqueous solubility, in words ([1]; comment on Table 5, compared with parent VIV-1) | inhibition at 1 µM [2] [%] | inhibition at 1 µM [3] [%] | In vitro metabolic stability, % remaining after 60 min [4] [%] | Cmax [5] [ng/mL] | AUCt ([5]; 0 to last measurable concentration) [ng·h/mL]
CO/N=C1\C[C@@H](CCC(=O)Nc2ncc(C)s2)C2C3CCc4cc(OC(=O)CN)ccc4C3CC[C@]12C (stereo partly drawn) [Compound 3, Aminoacetic acid (13S,15R)-13-methyl-17[(E)-methoxyimino]-15-[2-(5-methyl-thiazol-2-ylcarbamoyl)-ethyl]-7,8,9,11,12,13,14,15,16,17-decahydro-6H-cyclopenta[a]phenanthren-3-yl ester] | 2.37 (≈ 4.52 µM) | improved aqueous solubility | – | – | – | – | –
CO/N=C1\C[C@@H](CCC(=O)Nc2ncc(C)s2)C2C3CCc4cc(O)ccc4C3CC[C@]12C (stereo partly drawn) [VIV-1, 3-{(13S,15R)-3-Hydroxy-17-[(E)-methoxyimino]-13-methyl-7,8,9,11,12,13,14,15,16,17-decahydro-6H-cyclopenta[a]phenanthren-15-yl}-N-(5-methylthiazol-2-yl)propanamide] | < 0.52 | – | 95 | 4 | 73 | – | –
Phosphoric acid mono-{(13S,15R)-17-[(E)-methoxyimino]-13-methyl-15-[2-(5-methylthiazol-2-ylcarbamoyl)ethyl-7,8,9,11,12,13,14,15,16,17-decahydro-6H-cyclopenta[a]phenanthren-3-yl} ester disodium salt [Compound 1a] | – | – | – | – | – | 286 | 3170
